Where a name gives a salt, the structure may show the parent alone. Read-outs that look alike come from different tables or passages of the source.
Test system: Plasmodium falciparum: 3D7 strain
Assay: P. falciparum 3D7 asexual blood stage assay (SYBR green readout)
Type: cell-based
Conditions: Plasmodium falciparum, P. falciparum 3D7 in human erythrocytes, 72 h incubation, SYBR green fluorescence
Procedure, shortened: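 3D7-infected erythrocytes (5% haematocrit, 0.5% parasitaemia) were exposed 72 h at 37 °C under 1% O2/3% CO2 to a 20-point titration (50,000-15 nM final, 0.5% DMSO). Parasite DNA was read by SYBR green fluorescence after overnight lysis. Percent inhibition was set against mefloquine and DMSO, and EC50 came from a biphasic two-site fit.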

SMILES	IC50 (3D7, Erythrocyte, 72 h) [nM]	IC50 (Erythrocyte, read-out: IC50) [nM]
C[C@H]1C[C@@H](N2C(=N)N[C@](C)(c3cccc(-c4ccn(C)c(=O)c4)c3Cl)CC2=O)CCO1 [Example 34, (6S)-6-[2-Chloro-3-(1-methyl-2-oxopyridin-4-yl)phenyl]-2-imino-6-methyl-3-[(2S,4S)-2-methyl-tetrahydropyran-4-yl]hexahydro-pyrimidin-4-one trifluoroacetic acid salt]	286	
C[C@@H]1C[C@@H](N2C(=N)N[C@](C)(c3cccc(-c4ccc(OC(F)F)nc4)c3Cl)CC2=O)CCS1(=O)=O (relative stereo) [Example 72, (6S)-6-{2-Chloro-3-[6-(difluoro-methoxy)pyridin-3-yl|phenyl}-2-imino-6-methyl-3-[(2R*,4S*)-2-methyl-1,1-dioxothian-4-yl]-hexahydropyrimidin-4-one hydrochloride]		913
C[C@@]1(c2cccc(-c3cccc(Cl)c3)c2Cl)CC(=O)N([C@@H]2CCOC[C@H]2O)C(=N)N1 (relative stereo) [Example 96, (6S)-6-[2-Chloro-3-(3-chloro-phenyl)phenyl]-3-[(3S*,4R*)-3-hydroxytetrahydropyran-4-yl]-2-imino-6-methylhexahydro-pyrimidin-4-one hydrochloride]	1430	
C[C@H]1C[C@@H](N2C(=N)N[C@](C)(c3cccc(-c4ccc(Cl)cn4)c3Cl)CC2=O)CCS1(=O)=O (relative stereo) [Example 75, (6S)-6-[2-Chloro-3-(5-chloro-pyridin-2-yl)phenyl]-2-imino-6-methyl-3-[(2S*,4S*)-2-methyl-1,1-dioxothian-4-yl]hexahydro-pyrimidin-4-one hydrochloride]	217	
C[C@H]1C[C@@H](N2C(=N)N[C@](C)(c3cccc(-c4cncc(Cl)c4)c3Cl)CC2=O)CCO1 [Example 1, (6S)-6-[2-Chloro-3-(5-chloro-pyridin-3-yl)phenyl]-2-imino-6-methyl-3-[(2S,4S)-2-methyl-tetrahydropyran-4-yl]hexahydro-pyrimidin-4-one hydrochloride]	22	
C[C@H]1C[C@@H](N2C(=N)N[C@](C)(c3cccc(-c4ccc(F)cc4F)c3Cl)CC2=O)CCS1(=O)=O (relative stereo) [Example 64, (6S)-6-[2-Chloro-3-(2,4-difluoro-phenyl)phenyl]-2-imino-6-methyl-3-[(2S*,4S*)-2-methyl-1,1-dioxo-thian-4-yl]hexahydropyrimidin-4-one hydrochloride]	207	
CN1CCC(N2C(=N)N[C@](C)(c3cccc(-c4cccc(Cl)c4)c3Cl)CC2=O)CC1 [Example 90, (6S)-6-[2-Chloro-3-(3-chloro-phenyl)phenyl]-2-imino-6-methyl-3-(1-methylpiperidin-4-yl)-hexahydropyrimidin-4-one]		122
C[C@H]1C[C@@H](N2C(=N)N[C@](C)(c3cccc(-c4cccc(C(F)(F)F)c4)c3Cl)CC2=O)CCO1 [Example 48, (6S)-6-{2-Chloro-3-[3-(trifluoro-methyl)phenyl]phenyl}-2-imino-6-methyl-3-[(2S,4S)-2-methyl-tetrahydropyran-4-yl]hexahydro-pyrimidin-4-one trifluoroacetic acid salt]	66	
C[C@H]1C[C@@H](N2C(=N)N[C@](C)(c3cccc(-c4cccnc4)c3Cl)CC2=O)CCO1 [Example 49, (6S)-6-[2-Chloro-3-(pyridin-3-yl)-phenyl]-2-imino-6-methyl-3-[(2S,4S)-2-methyltetrahydropyran-4-yl]hexahydropyrimidin-4-one trifluoroacetic acid salt]	30	
C[C@H]1C[C@@H](N2C(=N)N[C@](C)(c3cccc(-c4cccc5ccccc45)c3Cl)CC2=O)CCO1 [Example 35, (6S)-6-[2-Chloro-3-(naphth-1-yl)-phenyl]-2-imino-6-methyl-3-[(2S,4S)-2-methyltetrahydropyran-4-yl]hexahydropyrimidin-4-one trifluoroacetic acid salt]	355	
C[C@H]1C[C@@H](N2C(=N)N[C@](C)(c3cccc(-c4cccc(N=S(C)(C)=O)c4)c3Cl)CC2=O)CCO1 [Example 3, (6S)-6-[2-Chloro-3-(3-{[(dimethyl)-(oxo)-26-sulfanylidene]amino}-phenyl)phenyl]-2-imino-6-methyl-3-[(2S,4S)-2-methyltetrahydro-pyran-4-yl]hexahydropyrimidin-4-one hydrochloride]		90
COc1cncc(-c2cccc([C@]3(C)CC(=O)N([C@H]4CCO[C@@H](C)C4)C(=N)N3)c2Cl)c1 [Example 58, (6S)-6-[2-Chloro-3-(5-methoxy-pyridin-3-yl)phenyl]-2-imino-6-methyl-3-[(2S,4S)-2-methyl-tetrahydropyran-4-yl]hexahydro-pyrimidin-4-one trifluoroacetic acid salt]	124	
C[C@H]1C[C@@H](N2C(=N)N[C@](C)(c3cccc(-c4ccncc4)c3Cl)CC2=O)CCO1 [Example 39, (6S)-6-[2-Chloro-3-(pyridin-4-yl)-phenyl]-2-imino-6-methyl-3-[(2S,4S)-2-methyltetrahydropyran-4-yl]hexahydropyrimidin-4-one trifluoroacetic acid salt]	269	
C[C@H]1C[C@@H](N2C(=N)N[C@](C)(c3cccc(-c4ccc(F)cc4F)c3Cl)CC2=O)CCN1C (relative stereo) [Example 106, (6S)-6-[2-Chloro-3-(2,4-difluoro-phenyl)phenyl]-3-[(2S*,4S*)-1,2-dimethylpiperidin-4-yl]-2-imino-6-methylhexahydropyrimidin-4-one hydrochloride]	94	
C[C@H]1C[C@@H](N2C(=N)N[C@](C)(c3cccc(-c4cn(-c5cc(F)c(F)cc5F)nn4)c3Cl)CC2=O)CC[C@H]1O (relative stereo) [Example 112, (6S)-6-{2-Chloro-3-[1-(2,4,5-trifluorophenyl)-1,2,3-triazol-4-yl]-phenyl}-3-[(1S*,3S*,4R*)-4-hydroxy-3-methylcyclohexyl]-2-imino-6-methylhexahydro-pyrimidin-4-one hydrochloride]	132	
C[C@H]1C[C@@H](N2C(=N)N[C@](C)(c3cccc(-c4cccc(P(C)(C)=O)c4)c3Cl)CC2=O)CCO1 [Example 5, (6S)-6-[2-Chloro-3-(3-dimethyl-phosphorylphenyl)phenyl]-2-imino-6-methyl-3-[(2S,4S)-2-methyl-tetrahydropyran-4-yl]hexahydro-pyrimidin-4-one hydrochloride]	101	
C[C@H]1C[C@@H](N2C(=N)N[C@](C)(c3cccc(-c4cn(Cc5ccccc5)nn4)c3Cl)CC2=O)CCO1 [Example 124, (6S)-6-[3-(1-Benzyl-1,2,3-triazol-4-yl)-2-chlorophenyl]-2-imino-6-methyl-3-[(2S,4S)-2-methyl-tetrahydropyran-4-yl]hexahydro-pyrimidin-4-one trifluoroacetic acid salt]	216	
COCCn1cc(-c2cccc([C@]3(C)CC(=O)N([C@H]4CCO[C@@H](C)C4)C(=N)N3)c2Cl)nn1 [Example 123, (6S)-6-{2-Chloro-3-[1-(2-methoxy-ethyl)-1,2,3-triazol-4-yl]phenyl}-2-imino-6-methyl-3-[(2S,4S)-2-methyltetrahydropyran-4-yl]-hexahydropyrimidin-4-one trifluoroacetic acid salt]	542	
C[C@H]1C[C@@H](N2C(=N)N[C@](C)(c3cccc(-c4cccc(Cl)c4)c3Cl)CC2=O)CCN1 (relative stereo) [Example 100, (6S)-6-[2-Chloro-3-(3-chloro-phenyl)phenyl]-2-imino-6-methyl-3-[(2S*,4S*)-2-methylpiperidin-4-yl]hexahydropyrimidin-4-one hydrochloride]	373	
C[C@@H]1C[C@H](N2C(=N)N[C@](C)(c3cccc(-c4ccc(OC(F)(F)F)nc4)c3Cl)CC2=O)CCS1(=O)=O (relative stereo) [Example 79, (6S)-6-{2-Chloro-3-[6-(trifluoro-methoxy)pyridin-3-yl]phenyl}-2-imino-6-methyl-3-[(2R*,4R*)-2-methyl-1,1-dioxothian-4-yl]-hexahydropyrimidin-4-one hydrochloride]	107	
C[C@H]1C[C@@H](N2C(=N)N[C@](C)(c3cccc(-c4ccn[nH]4)c3Cl)CC2=O)CCO1 [Example 45, (6S)-6-[2-Chloro-3-(1H-pyrazol-5-yl)phenyl]-2-imino-6-methyl-3-[(2S,4S)-2-methyltetrahydropyran-4-yl]hexahydropyrimidin-4-one trifluoroacetic acid salt]	12	
C[C@H]1C[C@@H](N2C(=N)N[C@](C)(c3cccc(-c4ccccc4C(F)(F)F)c3Cl)CC2=O)CCO1 [Example 37, (6S)-6-{2-Chloro-3-[2-(trifluoro-methyl)phenyl]phenyl}-2-imino-6-methyl-3-[(2S,4S)-2-methyl-tetrahydropyran-4-yl]hexahydro-pyrimidin-4-one trifluoroacetic acid salt]	67	
C[C@H]1C[C@@H](N2C(=N)N[C@](C)(c3cccc(-c4cn(-c5cccc(F)c5)nn4)c3Cl)CC2=O)CCO1 [Example 111, (6S)-6-{2-Chloro-3-[1-(3-fluoro-phenyl)-1,2,3-triazol-4-yl]phenyl}-2-imino-6-methyl-3-[(2S,4S)-2-methyltetrahydropyran-4-yl]-hexahydropyrimidin-4-one hydrochloride]	66	
C[C@H]1C[C@@H](N2C(=N)N[C@](C)(c3cccc(-c4cn(CC5CC(F)(F)C5)nn4)c3Cl)CC2=O)CCO1 [Example 116, (6S)-6-(2-Chloro-3-{1-[(3,3-difluorocyclobutyl)methyl]-1,2,3-triazol-4-yl}phenyl)-2-imino-6-methyl-3-[(2S,4S)-2-methyl-tetrahydropyran-4-yl]hexahydro-pyrimidin-4-one trifluoroacetic acid salt]	208	
